Test system: 327498-153-R-J2-PDC complex spheroid growth, % test/control
Experiment: Anticancer human tumor 327498-153-R-J2-PDC patient-derived uterine carcinosarcoma cell line growth inhibition [Asc]
Conditions: for IC50: curve of first compound; for viability, T/C: stronger effect = lower value; active = viability on the fitted dose curve at most 10% of control; inactive = the rest
In short: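 Complex spheroids combining tumor cells with HUVEC endothelial cells and human MSCs, at 37 degrees C, 5% CO2; agents tested alone or combined, half-log dilutions from at or near clinical Cmax, or 10 microM if Cmax unknown.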
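Note: spheroids exposed to compound for 7 days after 3 days of growth.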
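Throughout, for viability, T/C: 100% = DMSO vehicle control wells.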

COc1c(OCCCN2CCOCC2)ccc2c3n(c(=NC(=O)c4cnc(N)nc4)nc12)CCN3 + CNC(C)C(=O)NC1CN(S(=O)(=O)c2cccc(S(=O)(=O)N3CCC4CCC(C(=O)NC(c5ccccc5)c5ccccc5)N4C(=O)C(NC(=O)C(C)NC)C3)c2)CCC2CCC(C(=O)NC(c3ccccc3)c3ccccc3)N2C1=O
135 nM: IC50 (second compound 0.1 µM)
144 nM: IC50 (second compound 0.01 µM) | IC50 (second compound 0.0316 µM)
inactive: viability, T/C (second compound 0.01 µM, first compound 0.00316 µM) 93.4% | viability, T/C (second compound 0.01 µM, first compound 0.01 µM) 92.7% | viability, T/C (second compound 0.01 µM, first compound 0.0316 µM) 92.3% | viability, T/C (second compound 0.01 µM, first compound 0.1 µM) 57.5% | viability, T/C (second compound 0.01 µM, first compound 0.316 µM) 27.6% | viability, T/C (second compound 0.0316 µM, first compound 0.00316 µM) 96.7% | viability, T/C (second compound 0.0316 µM, first compound 0.01 µM) 94.9% | viability, T/C (second compound 0.0316 µM, first compound 0.0316 µM) 79.1% | viability, T/C (second compound 0.0316 µM, first compound 0.1 µM) 62.1% | viability, T/C (second compound 0.0316 µM, first compound 0.316 µM) 27.8% | viability, T/C (second compound 0.1 µM, first compound 0.00316 µM) 106% | viability, T/C (second compound 0.1 µM, first compound 0.01 µM) 89.5% | viability, T/C (second compound 0.1 µM, first compound 0.0316 µM) 85.7% | viability, T/C (second compound 0.1 µM, first compound 0.1 µM) 59% | viability, T/C (second compound 0.1 µM, first compound 0.316 µM) 25.7% | viability, T/C (second compound 0.316 µM, first compound 0.00316 µM) 111% | viability, T/C (second compound 0.316 µM, first compound 0.01 µM) 110% | viability, T/C (second compound 0.316 µM, first compound 0.0316 µM) 86.1% | viability, T/C (second compound 0.316 µM, first compound 0.1 µM) 59% | viability, T/C (second compound 0.316 µM, first compound 0.316 µM) 26.9% | viability, T/C (second compound 1 µM, first compound 0.00316 µM) 111% | viability, T/C (second compound 1 µM, first compound 0.01 µM) 95.2% | viability, T/C (second compound 1 µM, first compound 0.0316 µM) 85.1% | viability, T/C (second compound 1 µM, first compound 0.1 µM) 65% | viability, T/C (second compound 1 µM, first compound 0.316 µM) 24.8%
137 nM: IC50 (second compound 0.316 µM)
active: viability, T/C (second compound 0.01 µM, first compound 1 µM) 4.73% | viability, T/C (second compound 0.0316 µM, first compound 1 µM) 3.85% | viability, T/C (second compound 0.1 µM, first compound 1 µM) 3.38% | viability, T/C (second compound 0.316 µM, first compound 1 µM) 2.23% | viability, T/C (second compound 1 µM, first compound 1 µM) 2.95%
146 nM: IC50 (second compound 1 µM)

COc1c(OCCCN2CCOCC2)ccc2c3n(c(=NC(=O)c4cnc(N)nc4)nc12)CCN3 + CCN1C(C(=O)NC23CCC(C(=O)O)(CC2)CC3)C(c2cccc(Cl)c2F)C2(C(=O)Nc3cc(Cl)ccc32)C12CCCCC2
< 3.16 nM: IC50 (second compound 0.3 µM) | IC50 (second compound 0.949 µM) | IC50 (second compound 3 µM)
active: viability, T/C (second compound 0.03 µM, first compound 1 µM) 5.21% | viability, T/C (second compound 0.0949 µM, first compound 1 µM) 2.62% | viability, T/C (second compound 0.3 µM, first compound 0.316 µM) 6.23% | viability, T/C (second compound 0.3 µM, first compound 1 µM) 0.74% | viability, T/C (second compound 0.949 µM, first compound 0.01 µM) 9.4% | viability, T/C (second compound 0.949 µM, first compound 0.0316 µM) 5.86% | viability, T/C (second compound 0.949 µM, first compound 0.1 µM) 2.63% | viability, T/C (second compound 0.949 µM, first compound 0.316 µM) 1.42% | viability, T/C (second compound 0.949 µM, first compound 1 µM) 0.49% | viability, T/C (second compound 3 µM, first compound 0.00316 µM) 4.48% | viability, T/C (second compound 3 µM, first compound 0.01 µM) 3.3% | viability, T/C (second compound 3 µM, first compound 0.0316 µM) 2.05% | viability, T/C (second compound 3 µM, first compound 0.1 µM) 1.31% | viability, T/C (second compound 3 µM, first compound 0.316 µM) 0.47% | viability, T/C (second compound 3 µM, first compound 1 µM) 0.37%
81.8 nM: IC50 (second compound 0.03 µM)
inactive: viability, T/C (second compound 0.03 µM, first compound 0.00316 µM) 84.5% | viability, T/C (second compound 0.03 µM, first compound 0.01 µM) 90.5% | viability, T/C (second compound 0.03 µM, first compound 0.0316 µM) 76.5% | viability, T/C (second compound 0.03 µM, first compound 0.1 µM) 41.8% | viability, T/C (second compound 0.03 µM, first compound 0.316 µM) 21.1% | viability, T/C (second compound 0.0949 µM, first compound 0.00316 µM) 80.3% | viability, T/C (second compound 0.0949 µM, first compound 0.01 µM) 73.3% | viability, T/C (second compound 0.0949 µM, first compound 0.0316 µM) 50.4% | viability, T/C (second compound 0.0949 µM, first compound 0.1 µM) 25.6% | viability, T/C (second compound 0.0949 µM, first compound 0.316 µM) 12.3% | viability, T/C (second compound 0.3 µM, first compound 0.00316 µM) 40.1% | viability, T/C (second compound 0.3 µM, first compound 0.01 µM) 33.8% | viability, T/C (second compound 0.3 µM, first compound 0.0316 µM) 24.4% | viability, T/C (second compound 0.3 µM, first compound 0.1 µM) 10.8% | viability, T/C (second compound 0.949 µM, first compound 0.00316 µM) 12.2%
33.5 nM: IC50 (second compound 0.0949 µM)

Reference: PubChem BioAssay AID1963424 (Molecular Pharmacology Branch, DTP, NCI, 2024)
